{"source": "patent US11473088B2", "about": "“Method of treating cancer and method of sensitizing cancer cells to the action of chemotherapeutic agents via growth hormone receptor antagonists or knock down” (Ohio University, priority 2016, dated 2022)", "molecules": {"B1": {"name": "bGH: growth hormone (bGH) added at 50 or 500 ng/mL to B16F10 mouse melanoma cells (protein, UniProt P01246 27-217, looked up)", "Somatotropin": "AFPAMSLSGLFANAVLRAQHLHQLAADTFKEFERTYIPEGQRYSIQNTQVAFCFSETIPAPTGKNEAQQKSDLELLRISLLLIQSWLGPLQFLSRVFTNSLVFGTSDRVYEKLKDLEEGILALMRELEDGTPRAGQILKQTYDKFDTNMRSDDALLKNYGLLSCFRKDLHKTETYLRVMKCRRFGEASCAF"}}, "key": {"MALME-3M cells": {"tested_on": "MALME-3M cells", "assay": "ABC transporter RNA (RT-qPCR) following drug treatment", "type": "cell-based, human", "procedure": "(§1) Transfection was performed using siLentFect lipid reagent (Biorad #170-3360, Hercules, Calif.) following the manufacturer's protocol. […] Media was changed after 24 hours. RNA levels were analyzed 48 hours post transfection while protein levels were analyzed at 60 hours post-transfection. For drug treatment, drugs at the specified concentrations noted above were added to the cells 48 hours post-transfection and treated for 24 hours prior to quantitation of RNA expressions.\n(§2) RNA extraction, RT-qPCR, and protein extraction were performed as described in Example 1, above."}, "MDA-MB-435 cells [1]": {"tested_on": "MDA-MB-435 cells", "assay": "ABC transporter RNA (RT-qPCR) following drug treatment", "type": "cell-based, human", "details": "24 hr. drug exposure, GHR-siRNA vs scr-siRNA transfected", "procedure": "as §1, §2"}, "SK-MEL-28 cells [2]": {"tested_on": "SK-MEL-28 cells", "assay": "ABC transporter RNA (RT-qPCR) following drug treatment", "type": "cell-based, human", "procedure": "as §1, §2"}, "SK-MEL-5 cells [3]": {"tested_on": "SK-MEL-5 cells", "assay": "ABC transporter RNA (RT-qPCR) following drug treatment", "type": "cell-based, human", "details": "24 hr. drug exposure, GHR-siRNA vs scr-siRNA transfected", "procedure": "as §1, §2"}, "SK-MEL-28 cells [4]": {"tested_on": "SK-MEL-28 cells", "assay": "RT-qPCR time course after doxorubicin addition", "type": "cell-based, human", "details": "188 nM doxorubicin", "procedure": "(§3) Following treatments, cells were lysed, and RNA extraction was performed using IBI Tri-isolate kit (IBI), following manufacturer's protocol. RT-qPCR was performed as described previously."}, "SK-MEL-28 cells [5]": {"tested_on": "SK-MEL-28 cells", "assay": "EC50 of doxorubicin (cell viability)", "type": "cell-based", "details": "Homo sapiens, Example 3, read-out: EC50 of doxorubicin against SK-MEL-28 cells", "method": "Cell viability, following treatments, was performed using Invitrogen's PrestoBlue cell viability assay system. As described previously, it is a resazurin based assay which is reduced to resorufin (absorption at 570 nm) by the reducing environment of metabolically viable cells. It was performed in a 96-well system as described previously."}, "MDA-MB-435 cells [6]": {"tested_on": "MDA-MB-435 cells", "assay": "ABC transporter RNA (RT-qPCR) following drug treatment", "type": "cell-based, human", "details": "24 hr sub-EC50 drug, 50 ng/mL hGH"}, "SK-MEL-5 cells [7]": {"tested_on": "SK-MEL-5 cells", "assay": "ABC transporter RNA (RT-qPCR) following drug treatment", "type": "cell-based, human"}, "four melanoma cell lines": {"tested_on": "four melanoma cell lines", "assay": "Cell proliferation / EC50 determination", "details": "Homo sapiens, read-out: EC50 ranges for the four melanoma cell lines", "method": "A 1% (w/v) resazurin (Sigma-Aldrich #R7017) solution in 1× PBS was made and filter-sterilized. The final concentration of resazurin in the assay was 0.004%. Inside the proliferating cells, mildly fluorescent blue resazurin is reduced to a bright pink fluorescent product called resorufin (stable for 4 hours), which allows for a quantitative measure of the percentage of proliferating cells. In all cases, cells were incubated at 37° C. in 5% CO2 for 45-60 min. for adequate sensitivity of detection. Briefly, cells were seeded at 10,000 cells/cm^2 into 96-well plates and transfected as described above. The resazurin assay was performed 60 hours after transfection (unless specified otherwise) and resorufin absorbance was measured at 570 nm (reference wavelength=600 nm) using Spectramax250 (Molecular Devices, Sunnyvale, Calif.) and SoftmaxPro software.\nMore specifically, SK-MEL-28 cells (FIG. 8A, panel 1), MALME-3M cells (FIG. 8A, panel 2), MDA-MB-435 cells (FIG. 8A, panel 3), and SK-MEL-5 cells (FIG. 8A, panel 4) were treated with increasing doses of hGH for 48 hr. and cell proliferation was estimated using a resazurin-based metabolic assay.\nFor treatment of melanoma cells, the following five anti-tumor compounds were obtained from the sources mentioned: cisplatin (Calbiochem #232120, Darmstadt, Germany), doxorubicin (Sigma Aldrich #D-1515, St. Louis, Mo.), oridonin (Sigma-Aldrich #O-9639, St. Louis, Mo.), Paclitaxel (Sigma-Aldrich #C-7191), and vemurafenib/PLX4032 (ApexBio #A-3004, Houston, Tex.). […] In the subsequent experiments, the following drug concentrations were used unless specified otherwise: cisplatin (0.5 μM), doxorubicin (10 nM), oridonin (0.5 μM), paclitaxel (1 nM), vemurafenib (2 nM). Treatments were performed for 24 hours starting 48 hours post-transfection with siRNA."}, "[8]": {"tested_on": "B16F10 mouse melanoma cells", "assay": "ABC-transporter RNA in bGH treated cells (RT-qPCR)", "type": "cell-based", "procedure": "as §3\nGH upregulates ABC-transporter expression in mouse melanoma B16F10 cells in vitro and in vivo: B16F10 mouse melanoma cells were treated with 50 or 500 ng/mL bGH for 6, 24, 48 or 72 hr and the changes in the RNA levels of specific multidrug exporter pumps were analyzed over time and GH dose. […] RNA extracted from B16F10 tumors grown in GHRKO or bGH mice were analyzed for the above ABC-transporters. In bGH mice, the tumor cells and resulting tumors were exposed in vivo to high endogenous GH and high IGF-1; while in GHRKO mice, the tumor cells and resulting tumors were exposed in vivo to high GH but low IGF1."}, "[9]": {"details": "24-hour drug, presence vs absence of 50 ng/mL GH"}, "[10]": {"details": "24 hr sub-EC50 drug, 50 ng/mL hGH"}, "[11]": {"details": "24 hr. drug exposure, GHR-siRNA vs scr-siRNA transfected"}}, "data": [{"molecule": "COc1cccc2c1C(=O)c1c(O)c3c(c(O)c1C2=O)C[C@@](O)(C(=O)CO)C[C@@H]3O[C@H]1C[C@H](N)[C@H](O)[C@H](C)O1", "note": "[doxorubicin]", "values": [{"measurement": "ABCC2 RNA expression on drug exposure in presence of GH", "setting": "MALME-3M cells; [9]", "result": "increase"}, {"measurement": "ABCG1 RNA expression on drug exposure in presence of GH", "setting": "MALME-3M cells; [9]", "result": "increase"}, {"measurement": "ABCB8 RNA level in response to drug", "setting": "MALME-3M cells; [10]", "result": "significant upregulation"}, {"measurement": "ABCG1 RNA level in response to drug", "setting": "MALME-3M cells; [10]", "result": "surged"}, {"measurement": "Efflux Pumps (expression level change, p < 0.05): ABC-transporter pumps with significantly down-regulated RNA expressions", "setting": "MALME-3M cells; [11]", "result": "ABCB8, ABCC1, ABCG1, ABCG2"}, {"measurement": "Efflux Pumps (expression level change, p < 0.05): ABC-transporter pumps with significantly down-regulated RNA expressions", "setting": "MDA-MB-435 cells [1]", "result": "ABCB1, ABCB5, ABCC2, ABCG1"}, {"measurement": "ABCB1 RNA expression on drug exposure in presence of GH", "setting": "SK-MEL-28 cells [2]; [9]", "result": "upregulation"}, {"measurement": "ABCB8 RNA expression on drug exposure in presence of GH", "setting": "SK-MEL-28 cells [2]; [9]", "result": "upregulation"}, {"measurement": "ABCB5 RNA level in response to drug", "setting": "SK-MEL-28 cells [2]; [10]", "result": "significantly upregulated"}, {"measurement": "ABCG1 RNA level in response to drug", "setting": "SK-MEL-28 cells [2]; [10]", "result": "surged"}, {"measurement": "ABCG2 RNA level in response to drug", "setting": "SK-MEL-28 cells [2]; [10]", "result": "significantly upregulated"}, {"measurement": "Efflux Pumps (expression level change, p < 0.05): ABC-transporter pumps with significantly down-regulated RNA expressions", "setting": "SK-MEL-28 cells [2]; [11]", "result": "ABCB8, ABCC1, ABCG1, ABCG2"}, {"measurement": "Efflux Pumps (expression level change, p < 0.05): ABC-transporter pumps with significantly down-regulated RNA expressions", "setting": "SK-MEL-5 cells [3]", "result": "ABCB1, ABCB8, ABCG2"}, {"measurement": "rise in ABCB1 RNA", "setting": "SK-MEL-28 cells [4]; 12-hr", "result": 4, "unit": "fold"}, {"measurement": "rise in ABCG1 RNA", "setting": "SK-MEL-28 cells [4]; 12-hr", "result": 8, "unit": "fold"}, {"measurement": "transcript levels of CDH2, VIM and SNAI1", "setting": "SK-MEL-28 cells [4]; 12-hr after addition", "result": "increased significantly"}, {"measurement": "GER levels (RNA)", "setting": "SK-MEL-28 cells [4]; by 24-hr", "result": "concomitant rise"}, {"measurement": "rise in autocrine GH transcript", "setting": "SK-MEL-28 cells [4]; by 24-hr", "result": "> 2", "unit": "fold"}, {"measurement": "RNA levels of ABCB8, ABCC1 and ABCC4 drug efflux pumps", "setting": "SK-MEL-28 cells [4]; end of 24 hr", "result": "significantly higher levels"}, {"measurement": "increase in CDH2 transcript", "setting": "SK-MEL-28 cells [4]; end of 24 hr", "result": "> 3.5", "unit": "fold"}, {"measurement": "increase in SNAI1 transcript", "setting": "SK-MEL-28 cells [4]; end of 24 hr", "result": "> 2", "unit": "fold"}, {"measurement": "reduction in the epithelial marker CDH1/E-cadherin", "setting": "SK-MEL-28 cells [4]; end of 24 hr", "result": "> 8", "unit": "fold"}, {"measurement": "EC50", "setting": "SK-MEL-28 cells [5]", "result": 188, "unit": "nM"}, {"measurement": "ABCB5 RNA level in response to drug", "setting": "MDA-MB-435 cells [6]", "result": "significantly upregulated"}, {"measurement": "ABCB8 RNA level in response to drug", "setting": "MDA-MB-435 cells [6]", "result": "significant upregulation"}, {"measurement": "ABCB5 RNA expression on drug exposure in presence of GH", "setting": "SK-MEL-5 cells [7]; [9]", "result": "increase"}, {"measurement": "ABCB8 RNA level in response to drug", "setting": "SK-MEL-5 cells [7]; [10]", "result": "significant upregulation"}, {"measurement": "ABCG2 RNA level in response to drug", "setting": "SK-MEL-5 cells [7]; [10]", "result": "significantly upregulated"}, {"measurement": "EC50", "setting": "four melanoma cell lines", "result": "25 to 100", "unit": "nM"}]}, {"molecule": "C=C1C(=O)[C@]23[C@H](O)[C@H]1CC[C@H]2[C@@]12CO[C@]3(O)[C@@H](O)[C@@H]1C(C)(C)CC[C@@H]2O", "note": "[oridonin]", "values": [{"measurement": "EC50", "setting": "four melanoma cell lines", "result": "2000 to 8000", "unit": "nM"}]}, {"molecule": "B1", "values": [{"measurement": "RNA expression of Abcb1, Abcg1 and Abcg2", "setting": "[8]; 50 and 500 ng/mL bGH, 24, 48, and 72 hr", "result": "significantly higher RNA expression"}, {"measurement": "levels of Abcb8, Abcc1, Abcc2, and Abcc4 vs untreated controls", "setting": "[8]; any dose or time-point in vitro", "result": "not significantly different"}]}]}
